# Assay results taken from patent US20200237759A1, “DOSAGE REGIME AND METHOD FOR TREATING PULMONARY ARTERIAL HYPERTENSION” (Altavant Sciences GmbH, priority 2019, published 2020).
# Test: Thermodynamic stability of crystalline forms
# Type: physicochemical
# Details: compared to Form 1
compound,measurement,value
"CCOC(=O)[C@@H]1CC2(CCN(c3cc(O[C@H](c4ccc(Cl)cc4-c4ccccc4)C(F)(F)F)nc(N)n3)CC2)CN1 [Form 3, (S)-ethyl 8-(2-amino-6-((R)-1-(5-chloro-[1,1′-biphenyl]-2-yl)-2,2,2-trifluoroethoxy)pyrimidin-4-yl)-2,8-diazaspiro[4.5]decane-3-carboxylate]",thermodynamic stability,substantially greater thermodynamic stability compared to Form 1
